Source: PubChem BioAssay AID248 (DTP/NCI, 2004)
“And” between values parts separate entries of the source, which are not always exact repeats. Equal entries are not always repeated. Inconclusive results and toxic doses are left out. Rule as the data show it: active = T/C of 150% or more; inactive = T/C below 125%.

Test system: L1210 leukemia ip in BDF1 mice, survival T/C
Test: NCI In Vivo Anticancer Drug Screen. Data for tumor model L1210 Leukemia (intraperitoneal) in B6D2F1 (BDF1) mice
Details: endpoint: mean survival time, higher = longer survival
How it was run: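 Mice bearing the transplanted tumor received compound or vehicle. Survival of the treated group was divided by that of the vehicle-treated control group to give the ratio.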

[1] = dose: 100.0 mg/kg/injection, schedule: Q04DX002 (ip), vehicle: saline with Tween-80
[2] = dose: 100.0 mg/kg/injection, schedule: Q04DX003 (ip), vehicle: saline with Tween-80
[3] = dose: 200.0 mg/kg/injection, schedule: Q04DX002 (ip), vehicle: saline with Tween-80
[4] = dose: 200.0 mg/kg/injection, schedule: Q04DX003 (ip), vehicle: saline with Tween-80
[5] = dose: 400.0 mg/kg/injection, schedule: Q04DX002 (ip), vehicle: saline with Tween-80
[6] = dose: 400.0 mg/kg/injection, schedule: Q04DX003 (ip), vehicle: saline with Tween-80
[7] = dose: 100.0 mg/kg/injection, schedule: Q01DX001 (ip), vehicle: carboxymethylcellulose (CMC)
[8] = dose: 200.0 mg/kg/injection, schedule: Q01DX001 (ip), vehicle: carboxymethylcellulose (CMC)
[9] = dose: 100.0 mg/kg/injection, schedule: Q01DX001 (ip), vehicle: saline
[10] = dose: 200.0 mg/kg/injection, schedule: Q01DX001 (ip), vehicle: saline
[11] = dose: 400.0 mg/kg/injection, schedule: Q01DX001 (ip), vehicle: saline
[12] = dose: 100.0 mg/kg/injection, schedule: Q04DX003 (ip), vehicle: saline
[13] = dose: 200.0 mg/kg/injection, schedule: Q04DX003 (ip), vehicle: saline
[14] = dose: 400.0 mg/kg/injection, schedule: Q04DX003 (ip), vehicle: saline
[15] = dose: 100.0 mg/kg/injection, schedule: Q04DX002 (ip), vehicle: Klucel (hydroxypropylcellulose) (HPC)
[16] = dose: 200.0 mg/kg/injection, schedule: Q04DX002 (ip), vehicle: Klucel (hydroxypropylcellulose) (HPC)
[17] = dose: 400.0 mg/kg/injection, schedule: Q04DX002 (ip), vehicle: Klucel (hydroxypropylcellulose) (HPC)
[18] = dose: 100.0 mg/kg/injection, schedule: Q01DX009 (ip), vehicle: saline

Measured: T/C

COc1ccc(C(=O)NC(=S)Nc2ccc(O)cc2)cc1
inactive: dose: 100.0 mg/kg/injection, schedule: Q01DX009 (ip), vehicle: saline with Tween-80 97 % of control and 104 % of control | [1] 98 % of control | [2] 99 % of control | dose: 200.0 mg/kg/injection, schedule: Q01DX009 (ip), vehicle: saline with Tween-80 108 % of control and 109 % of control | [3] 104 % of control | [4] 94 % of control | dose: 400.0 mg/kg/injection, schedule: Q01DX009 (ip), vehicle: saline with Tween-80 98 % of control and 101 % of control | [5] 95 % of control | [6] 96 % of control

CCC(COC(=O)c1ccc(N)cc1)NC(CC(C)C)CC(C)C (stereo not given)
inactive: dose: 75.0 mg/kg/injection, schedule: Q01DX001 (ip), vehicle: carboxymethylcellulose (CMC) 89 % of control | dose: 300.0 mg/kg/injection, schedule: Q01DX001 (ip), vehicle: carboxymethylcellulose (CMC) 91 % of control

COc1ccc(NP2(=O)OCC(C)(N)CO2)cc1 (stereo not given)
inactive: [7] 91 % of control | [8] 96 % of control | dose: 400.0 mg/kg/injection, schedule: Q01DX001 (ip), vehicle: carboxymethylcellulose (CMC) 91 % of control

CN(C)CCC(O)C(c1ccccc1)c1ccccc1 (stereo not given)
inactive: dose: 75.0 mg/kg/injection, schedule: Q01DX001 (ip), vehicle: saline 100 % of control | dose: 150.0 mg/kg/injection, schedule: Q01DX001 (ip), vehicle: saline 102 % of control

O=c1cc(CC(O)(c2ccccc2)c2ccccc2)cc[nH]1
inactive: [9] 100 % of control | [10] 95 % of control | [11] 100 % of control

Cc1cc(=S)[nH]c2ccccc12
inactive: dose: 75.0 mg/kg/injection, schedule: Q04DX003 (ip), vehicle: saline 100 % of control | dose: 150.0 mg/kg/injection, schedule: Q04DX003 (ip), vehicle: saline 100 % of control | dose: 300.0 mg/kg/injection, schedule: Q04DX003 (ip), vehicle: saline 100 % of control

CSc1nc(SCc2ccccc2)[nH]c(=O)n1
inactive: [1] 98 % of control | [3] 117 % of control | [5] 98 % of control

CCCCCCCCCCCCC(=O)N1CCOCC1
inactive: [2] 122 % of control | [4] 107 % of control | [6] 104 % of control

Cc1ccc(C(=O)CCCN2CCOCC2)c(C)c1
inactive: dose: 5.0 mg/kg/injection, schedule: Q01DX001 (ip), vehicle: saline 105 % of control | dose: 10.0 mg/kg/injection, schedule: Q01DX001 (ip), vehicle: saline 97 % of control | dose: 20.0 mg/kg/injection, schedule: Q01DX001 (ip), vehicle: saline 94 % of control | dose: 40.0 mg/kg/injection, schedule: Q01DX001 (ip), vehicle: saline 108 % of control | dose: 80.0 mg/kg/injection, schedule: Q01DX001 (ip), vehicle: saline 100 % of control | [10] 95 % of control

CCOC(=O)C(=O)Nc1cc(C)ccc1C
inactive: [2] 93 % of control | [4] 95 % of control

O=C1CC2=C(CC(O)=CC=C2)C(=O)O1
inactive: [12] 104 % of control | [13] 100 % of control | [14] 93 % of control

CC(=O)c1ccc2[nH]c(C)cc(=O)c2c1
inactive: [9] 94 % of control | [10] 107 % of control | [11] 96 % of control

CC(=O)OC1=CC2(OC(C)=O)CC1C1C(=O)OC(=O)C12 (stereo not given)
inactive: [9] 101 % of control | [12] 96 % of control | [10] 98 % of control | [13] 96 % of control | [11] 88 % of control | [14] 86 % of control

Cc1ccc(SCCN=C(N)CSS(=O)(=O)O)cc1
inactive: dose: 12.5 mg/kg/injection, schedule: Q01DX009 (ip), vehicle: Klucel (hydroxypropylcellulose) (HPC) 94 % of control | dose: 25.0 mg/kg/injection, schedule: Q01DX009 (ip), vehicle: Klucel (hydroxypropylcellulose) (HPC) 107 % of control | [15] 92 % of control | [16] 101 % of control | [17] 92 % of control

O=S1(=O)CS(=O)(=O)CS(=O)(=O)C1
inactive: dose: 100.0 mg/kg/injection, schedule: Q04DX002 (ip), vehicle: saline 108 % of control | dose: 200.0 mg/kg/injection, schedule: Q04DX002 (ip), vehicle: saline 119 % of control | dose: 400.0 mg/kg/injection, schedule: Q04DX002 (ip), vehicle: saline 101 % of control

CC(=O)Nc1nc(Cl)c2ncn(C3OC(COC(=O)c4ccccc4)CC3OC(=O)c3ccccc3)c2n1 (stereo not given)
inactive: dose: 50.0 mg/kg/injection, schedule: Q01DX001 (ip), vehicle: saline 93 % of control | [9] 95 % of control | [10] 101 % of control | [11] 93 % of control

CSc1ncnc2c1ncn2C1OC(COC(N)=O)C(O)C1O (stereo not given)
inactive: dose: 100.0 mg/kg/injection, schedule: Q01DX005 (ip), vehicle: saline 107 % of control | dose: 200.0 mg/kg/injection, schedule: Q01DX005 (ip), vehicle: saline 114 % of control

O=C(C=c1sc(=CC(=O)c2ccccc2)s1)c1ccccc1
inactive: dose: 100.0 mg/kg/injection, schedule: Q01DX001 (ip), vehicle: Klucel (hydroxypropylcellulose) (HPC) 97 % of control | dose: 200.0 mg/kg/injection, schedule: Q01DX001 (ip), vehicle: Klucel (hydroxypropylcellulose) (HPC) 97 % of control | dose: 400.0 mg/kg/injection, schedule: Q01DX001 (ip), vehicle: Klucel (hydroxypropylcellulose) (HPC) 97 % of control

COc1cc2c(cc1OC)C(Cc1ccc(OC(=O)O)cc1)=NCC2
inactive: [7] 102 % of control | [8] 102 % of control

CC1(C)N=C(N)N=C(N)N1c1cccc(CN)c1
inactive: dose: 25.0 mg/kg/injection, schedule: Q01DX009 (ip), vehicle: saline 101 % of control | dose: 25.0 mg/kg/injection, schedule: Q04DX003 (ip), vehicle: saline 101 % of control | dose: 50.0 mg/kg/injection, schedule: Q01DX009 (ip), vehicle: saline 102 % of control and 103 % of control | dose: 50.0 mg/kg/injection, schedule: Q04DX003 (ip), vehicle: saline 103 % of control | [18] 98 % of control and 86 % of control | [12] 102 % of control and 105 % of control

CCC(CC)N1CCCS1(=O)=O
inactive: [18] 93 % of control | dose: 200.0 mg/kg/injection, schedule: Q01DX009 (ip), vehicle: saline 102 % of control | dose: 400.0 mg/kg/injection, schedule: Q01DX009 (ip), vehicle: saline 96 % of control

Nc1nc(-c2cc(Br)ccc2N=NN2CCOCC2)nc2ccc(Br)cc12
inactive: [15] 105 % of control | [16] 96 % of control | [17] 89 % of control

CCCCCCCCCC/C=N/Nc1ccc([N+](=O)[O-])cc1[N+](=O)[O-]
inactive: dose: 50.0 mg/kg/injection, schedule: Q01DX001 (ip), vehicle: saline with Tween-80 93 % of control | dose: 100.0 mg/kg/injection, schedule: Q01DX001 (ip), vehicle: saline with Tween-80 92 % of control | dose: 200.0 mg/kg/injection, schedule: Q01DX001 (ip), vehicle: saline with Tween-80 93 % of control

O=C(NC(=S)N1CCCC1)c1ccccc1
inactive: [15] 96 % of control | [16] 107 % of control | [17] 96 % of control

Cc1ccc(NC(=O)NCCO)cc1C
inactive: [1] 95 % of control | [3] 95 % of control

Cc1cc(NCC(=O)NN)ccc1Cl
inactive: dose: 50.0 mg/kg/injection, schedule: Q04DX002 (ip), vehicle: Klucel (hydroxypropylcellulose) (HPC) 103 % of control | [15] 104 % of control and 114 % of control | [16] 86 % of control
